Measured values taken from patent US20220062262A1, “GSNO REDUCTASE INHIBITOR AS AN ADJUNCT THERAPY WITH REMOTE ISCHEMIC CONDITIONING AND THROMBOLYTIC REPERFUSION THERAPIES IN STROKE” (KING ABDULAZIZ UNIVERSITY, priority 2020, published 2022).

Test system: pMCAL-stroke (permanent occlusion of distal MCA trunk)
Assay: Permanent MCA occlusion (pMCAo/pMCAL) stroke model in adult male and ovariectomized female mice
Format: in vivo
Conditions: 2.5 mg/kg IV 1 h after stroke, repeated daily for 2 days, males and OVX-females
Method: The procedure for pMCAo was performed in mice as reported by Hoda et al. (Stroke 2012, 43(10):2794-2799). Briefly, under anesthesia, the junction of left zygomatic arch and squamous bone was drilled to make a 2-3 mm burr hole to expose the main trunk of MCA. The left MCA distal to the lenticulostriate branches was electrocauterized carefully without bleeding. The wound was closed, and mice were put under post-op recovery as described above. Sham-operated group underwent similar surgical procedures but without electrocauterization. Cortical LDF (Perimed Inc, Sweden) was performed to confirm the induction of stroke in anesthetized mice. Briefly, mice were anesthetized as above and a shallow indent was made in the parietal skull using a low-speed drill to place the LDF probe holder (PH07-6, Perimed Inc) aligning the holder hole at the stereotaxic coordinates (AP: 2-mm and lateral 3-mm with respect to bregma). The needle of LDF-probe (PH407, Perimed Inc) was inserted into the probe holder and the signal was recorded to confirm a significant drop in CBF following stroke. Mice were anesthetized as above, body temperature was maintained at 37±0.5 ° C., the skull was shaved, and a midline skin incision was made to primarily expose the MCA region. Perfusion images were acquired using PeriCam high resolution LASCA-Imager (PSI-Z system, Perimed Inc.) with a 70-mW built-in laser diode for illumination and 1388×1038 pixels CCD camera installed 10 cm above the skull (speed 19 Hz, and exposure time 6 mSec, 1.3 x 1.3 cm). Acquired video and images were analyzed for the dynamic changes in CBF. Overall perfusion of the ipsilateral ischemic hemisphere was determined, normalized with the equal size of region of interest (ROI) from the uninjured contralateral hemisphere and the relative CBF was calculated. […] Therefore, larger white area indicates higher injury and infarction volume. […] Performance of each mouse on the narrow beam was quantified by measuring the time it took for the mouse to traverse the 100-cm distance on the narrow beam and the number of foot slips that occurred in each trial. […]

## Cc1cc(C(N)=O)ccc1-n1c(CCC(=O)O)ccc1-c1ccc(-n2ccnc2)cc1 [GRI therapy, N6022]
72 h post-pMCAo
  restoration of CBF (% CBF, LSCI) vs vehicle: improved restoration of CBF in both sexes significantly
72 h post-stroke
  infarct progression (TTC infarct volume): significantly prevented the infarct progression sex-independently in both groups
  motor function, narrow beam walk test (time to traverse, foot slips): equally effective in improving motor function in both sexes
